# Data reported in patent US20060276464A1, “Diarylsulfone sulfonamides and use thereof” (Wyeth, priority 2005, published 2006).
# Where two headings read alike, the source gives them in different places.
# Tests used:
# [1] = target: T1, SFRP-1 (Homo sapiens, UniProt Q8N474); experiment: Fluorescence polarization binding assay (competitive displacement of a probe compound from SFRP-1); conditions: fluorescence anisotropy, 45 nM SFRP-1, 20 nM probe;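 also: test compound competes with a fluorescent probe held by SFRP-1, seen as a drop in probe anisotropy after incubation in darkness, with anisotropy as function of rising compound dose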
# T1 sequence (Q8N474 32-314): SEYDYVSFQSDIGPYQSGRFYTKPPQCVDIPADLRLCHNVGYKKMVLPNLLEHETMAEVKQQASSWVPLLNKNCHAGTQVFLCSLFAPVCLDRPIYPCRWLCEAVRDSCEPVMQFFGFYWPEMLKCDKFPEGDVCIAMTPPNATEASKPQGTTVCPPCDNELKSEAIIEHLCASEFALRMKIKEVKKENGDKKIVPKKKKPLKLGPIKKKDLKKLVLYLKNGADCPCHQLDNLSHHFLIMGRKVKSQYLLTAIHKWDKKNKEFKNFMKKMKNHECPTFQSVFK
# [2] = target: T1, SFRP-1; experiment: Cell-based assay for in vitro measurement of SFRP-1/SARP2 antagonist activity (U2OS cells co-transfected with 16x TCF-tk-Luciferase reporter, Wnt and hSFRP-1); conditions: for fold induction at 15 µM / fold induction at 10 µM: U2OS; for fold induction at 10 µM: read-out: Fold Induction with SFRP-1, U2OS cells, single dose 10 μM, luciferase reporter, fold induction over SFRP-1 control;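 as to all read-outs here: U2OS cells co-transfected with a TCF-tk luciferase reporter, a Wnt vector, hSFRP-1 or empty vector and CMV-βgal, luciferase luminescence read in cell lysates alongside βgal activity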
# [3] = read-out: Fold Induction with SFRP-1, Conc 15 μM, single dose, luciferase reporter, fold induction over SFRP-1 control, cells with SFRP-1
# [4] = read-out: Fold Induction without SFRP-1, Conc 15 μM, single dose, luciferase reporter, cells without SFRP-1 (specificity control)
IC50 [1] [nM],"fold induction at 15 µM ([2]; read-out: Fold Induction with SFRP-1, Conc 15 μM, with SFRP-1, fold induction over SFRP-1 control, single dose)","fold induction at 15 µM ([2]; read-out: Fold Induction without SFRP-1, Conc 15 μM, without SFRP-1, single dose)",EC50 [2] [nM],fold induction at 10 µM [2],"fold induction at 15 µM [2, 3]","fold induction at 15 µM [2, 4]",SMILES
800,3.2,1.3,–,–,–,–,"Cc1ccc(S(=O)(=O)c2ccccc2)cc1S(=O)(=O)NC1CCOCC1 [Example 298, 2-methyl-5-(phenylsulfonyl)-N-tetrahydro-2H-pyran-4-ylbenzenesulfonamide]"
500,–,–,1670,–,–,–,"O=S(=O)(NC1CCNCC1)c1cc(S(=O)(=O)c2cccc(Br)c2)ccc1C(F)(F)F [Example 1034, 5-[(3-bromophenyl)sulfonyl]-N-piperidin-4-yl-2-(trifluoromethyl)benzenesulfonamide]"
140,–,–,399,–,–,–,"CC(C(N)=O)N1CCC(NS(=O)(=O)c2cc(S(=O)(=O)c3ccccc3)ccc2C(F)(F)F)CC1 (stereo not drawn) [Example 1003, 2-[4-({[5-(phenylsulfonyl)-2-(trifluoromethyl)phenyl]sulfonyl}amino)piperidin-1-yl]propanamide]"
1200,–,–,1760,3.5,–,–,"O=S(=O)(NC1CCNCC1)c1cc(S(=O)(=O)c2ccccc2NCCO)ccc1C(F)(F)F [Example 869, 5-({2-[(2-hydroxyethyl)amino]phenyl}sulfonyl)-N-piperidin-4-yl-2-(trifluoromethyl)benzenesulfonamide]"
7000,–,–,–,–,2.2,1.1,"Cc1cccc(S(=O)(=O)c2ccc(Cl)c(S(=O)(=O)NC3CCOCC3)c2)c1 [Example 604, 2-chloro-5-[(3-methylphenyl)sulfonyl]-N-(tetrahydro-2H-pyran-4-yl)benzenesulfonamide]"

# The next lines start with the compound.
SMILES,IC50 [1] [nM],"fold induction at 15 µM ([2]; read-out: Fold Induction with SFRP-1, Conc 15 μM, with SFRP-1, fold induction over SFRP-1 control, single dose)","fold induction at 15 µM ([2]; read-out: Fold Induction without SFRP-1, Conc 15 μM, without SFRP-1, single dose)",EC50 [2] [nM],fold induction at 10 µM [2],"fold induction at 15 µM [2, 3]","fold induction at 15 µM [2, 4]"
"CC(=O)N1CC[C@@H](C(=O)N2CCC(NS(=O)(=O)c3cc(S(=O)(=O)c4ccccc4)ccc3C(F)(F)F)CC2)C1 [Example 1064, N-(1-{[(3R)-1-acetylpyrrolidin-3-yl]carbonyl}piperidin-4-yl)-5-(phenylsulfonyl)-2-(trifluoromethyl)benzenesulfonamide]",60,–,–,193,–,–,–
"CC(C)c1ccc(S(=O)(=O)c2ccc(F)cc2)cc1S(=O)(=O)NC1CCN(Cc2ccccc2)CC1 [Example 525, N-(1-benzylpiperidin-4-yl)-5-[(4-fluorophenyl)sulfonyl]-2-isopropylbenzenesulfonamide]",1000,–,–,–,–,2.1,1.1
"O=C(O)[C@H]1CC[C@H](CNS(=O)(=O)c2cc(S(=O)(=O)c3ccccc3)ccc2C(F)(F)F)CC1 [Example 969, trans-4-[({[5-(phenylsulfonyl)-2-(trifluoromethyl)phenyl]sulfonyl}amino)methyl]cyclohexanecarboxylic acid]",180,–,–,588,3.1,–,–
"O=C(O)CCCC(=O)N1CCC(NS(=O)(=O)c2cc(S(=O)(=O)c3ccccc3)ccc2C(F)(F)F)C1 (stereo not drawn) [Example 895, 5-oxo-5-[3-({[5-(phenylsulfonyl)-2-(trifluoromethyl)phenyl]sulfonyl}amino)pyrrolidin-1-yl]pentanoic acid]",190,–,–,871,2.9,–,–
"CC(C)c1ccc(S(=O)(=O)c2ccc(F)cc2)cc1S(=O)(=O)NC1CCN(C(=S)Nc2cccc([N+](=O)[O-])c2)CC1 [Example 699, 4-[({5-[(4-fluorophenyl)sulfonyl]-2-isopropylphenyl}sulfonyl)amino]-N-(3-nitrophenyl)piperidine-1-carbothioamide]",1600,–,–,9800,2.9,–,–
"O=S(=O)(NC1CCN(S(=O)(=O)c2ccc(O)cc2)CC1)c1cc(S(=O)(=O)c2ccccc2)ccc1C(F)(F)F [Example 914, N-{1-[(4-hydroxyphenyl)sulfonyl]piperidin-4-yl}-5-(phenylsulfonyl)-2-(trifluoromethyl)benzenesulfonamide]",80,–,–,541,4.5,–,–
